# ChEMBL document CHEMBL4765381, “Neuropeptide FF and Its Receptors: Therapeutic Applications and Ligand Development” (J Med Chem, 2020)
# Numbered stars: 1 amine (or outer) side, 2 acyl side, 3 side chain; on linkers, the order of the positions; unused ones are H or OH. Square brackets hold non-standard residues; d marks the D form. Peptide text beside a SMILES is read from it. X1 = O=C1[C@@H](N[*:1])Cc2ccccc2CN1CCC(=O)[*:2]; Dmt = Cc1cc(O)cc(C)c1C[C@H](N)C(=O)O
# Assays:
# [1] = target: T1, Neuropeptide FF receptor 2 (Homo sapiens, UniProt Q9Y5X5); assay: Agonist activity at NPFFR2 (unknown origin) expressed in HEK-293A cells assessed as inhibition of forskolin-induced cAMP accumulation preincubated for 30 mins followed by [3H] cAMP addition measured after 2 hrs by scintillation counting method; assay type: functional, cell-based, HEK293-A
# T1 sequence (Q9Y5X5 whole entry): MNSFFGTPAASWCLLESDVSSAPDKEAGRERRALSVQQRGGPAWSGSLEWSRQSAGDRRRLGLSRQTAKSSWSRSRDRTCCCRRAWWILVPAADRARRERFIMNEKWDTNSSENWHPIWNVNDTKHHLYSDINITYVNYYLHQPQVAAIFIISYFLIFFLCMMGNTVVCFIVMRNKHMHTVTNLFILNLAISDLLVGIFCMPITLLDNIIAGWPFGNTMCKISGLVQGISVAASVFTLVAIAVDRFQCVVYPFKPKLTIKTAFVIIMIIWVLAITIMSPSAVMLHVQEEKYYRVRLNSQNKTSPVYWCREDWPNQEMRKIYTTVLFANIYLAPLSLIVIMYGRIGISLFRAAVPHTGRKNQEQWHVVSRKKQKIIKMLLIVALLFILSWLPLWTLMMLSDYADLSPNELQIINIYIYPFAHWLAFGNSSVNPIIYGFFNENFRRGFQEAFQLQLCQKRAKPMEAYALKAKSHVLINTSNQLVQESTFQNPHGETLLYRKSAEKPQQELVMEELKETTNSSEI
# [2] = target: T2, Neuropeptide FF receptor 1 (Homo sapiens, UniProt Q9GZQ6); assay: Agonist activity at NPFFR1 (unknown origin) expressed in HEK-293A cells assessed as inhibition of forskolin-induced cAMP accumulation preincubated for 30 mins followed by [3H] cAMP addition measured after 2 hrs by scintillation counting method; assay type: functional, cell-based, HEK293-A
# T2 sequence (Q9GZQ6 whole entry): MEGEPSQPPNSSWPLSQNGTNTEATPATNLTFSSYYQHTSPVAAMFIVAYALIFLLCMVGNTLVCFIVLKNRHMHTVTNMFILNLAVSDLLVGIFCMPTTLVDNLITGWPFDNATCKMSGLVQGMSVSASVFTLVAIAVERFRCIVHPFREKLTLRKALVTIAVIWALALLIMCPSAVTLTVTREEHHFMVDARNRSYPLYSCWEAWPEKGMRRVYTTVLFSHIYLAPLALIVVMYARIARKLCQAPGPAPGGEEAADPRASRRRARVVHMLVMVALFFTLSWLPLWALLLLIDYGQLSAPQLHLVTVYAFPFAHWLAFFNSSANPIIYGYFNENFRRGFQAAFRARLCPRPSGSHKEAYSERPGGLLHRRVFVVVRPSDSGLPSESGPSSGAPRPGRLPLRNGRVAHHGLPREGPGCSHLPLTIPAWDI
# [3] = target: T3, Kappa-type opioid receptor (Homo sapiens, UniProt P41145); assay: Agonist activity at kappa opioid receptor (unknown origin) expressed in HEK-293A cells assessed as inhibition of forskolin-induced cAMP accumulation preincubated for 30 mins followed by [3H] cAMP addition measured after 2 hrs by scintillation counting method; assay type: functional, cell-based, HEK293-A
# T3 sequence (P41145 whole entry): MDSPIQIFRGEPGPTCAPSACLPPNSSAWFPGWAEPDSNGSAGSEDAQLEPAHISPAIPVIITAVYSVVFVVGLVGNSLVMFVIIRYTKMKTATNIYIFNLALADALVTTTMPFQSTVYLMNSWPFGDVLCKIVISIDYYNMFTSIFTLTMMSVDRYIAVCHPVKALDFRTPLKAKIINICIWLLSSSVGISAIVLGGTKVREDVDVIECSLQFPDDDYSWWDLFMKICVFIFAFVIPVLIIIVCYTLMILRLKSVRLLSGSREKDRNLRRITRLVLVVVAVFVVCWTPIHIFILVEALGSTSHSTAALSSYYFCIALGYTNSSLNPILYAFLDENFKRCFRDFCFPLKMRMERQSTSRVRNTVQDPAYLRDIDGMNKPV
# [4] = target: T2, Neuropeptide FF receptor 1; assay: Agonist activity at NPFFR1 (unknown origin) expressed in mouse NIH3T3 cells by receptor selection and amplification technology assay relative to control; assay type: cell-based
# [5] = target: T2, Neuropeptide FF receptor 1; assay: Displacement of 125I-NPFF from human NPFFR1 incubated for 2 hrs by TopCount scintillation counting method
# [6] = target: T1, Neuropeptide FF receptor 2; assay: Agonist activity at NPFFR2 (unknown origin) expressed in mouse NIH3T3 cells by receptor selection and amplification technology assay; assay type: cell-based
# [7] = target: T2, Neuropeptide FF receptor 1; assay: Agonist activity at NPFFR1 (unknown origin) expressed in HEK293T cells harboring EP2 incubated for 15 mins by cAMP assay relative to control; assay type: functional, cell-based
# [8] = target: T1, Neuropeptide FF receptor 2; assay: Displacement of 125I-NPFF from human NPFFR2 incubated for 2 hrs by TopCount scintillation counting method
# [9] = target: T2, Neuropeptide FF receptor 1; assay: Displacement of [3H]-FFRF-NH2 from human FLAG-tagged NPFFR1 expressed in CHO cell membrane incubated for 30 mins by Topcount scintillation counting method
# [10] = target: T1, Neuropeptide FF receptor 2; assay: Displacement of [3H]-FFRF-NH2 from human FLAG-tagged NPFFR2 expressed in CHO cell membrane incubated for 30 mins by Topcount scintillation counting method
# [11] = target: Neuropeptide FF receptor 1 (Rattus norvegicus, UniProt Q9EP86); assay: Binding affinity to rat NPFFR1 by radioligand binding assay
# Neuropeptide FF receptor 1 (Rattus norvegicus, UniProt Q9EP86), sequence (Q9EP86 whole entry): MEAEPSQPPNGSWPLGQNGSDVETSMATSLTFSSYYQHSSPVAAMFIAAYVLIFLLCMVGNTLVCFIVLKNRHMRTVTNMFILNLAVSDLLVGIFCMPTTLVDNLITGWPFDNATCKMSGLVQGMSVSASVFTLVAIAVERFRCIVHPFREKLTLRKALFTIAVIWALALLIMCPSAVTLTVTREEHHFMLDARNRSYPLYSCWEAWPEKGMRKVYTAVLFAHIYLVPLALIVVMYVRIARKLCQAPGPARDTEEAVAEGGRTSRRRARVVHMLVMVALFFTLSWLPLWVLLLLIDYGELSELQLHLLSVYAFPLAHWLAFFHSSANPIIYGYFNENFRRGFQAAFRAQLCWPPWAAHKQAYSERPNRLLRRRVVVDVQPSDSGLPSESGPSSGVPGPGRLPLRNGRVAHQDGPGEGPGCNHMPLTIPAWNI
# [12] = target: T1, Neuropeptide FF receptor 2; assay: Binding affinity to human NPFFR2 by radioligand binding assay
# [13] = target: Neuropeptide FF receptor 2 (Rattus norvegicus, UniProt Q9EQD2); assay: Binding affinity to rat NPFFR2 by radioligand binding assay
# Neuropeptide FF receptor 2 (Rattus norvegicus, UniProt Q9EQD2), sequence (Q9EQD2 whole entry): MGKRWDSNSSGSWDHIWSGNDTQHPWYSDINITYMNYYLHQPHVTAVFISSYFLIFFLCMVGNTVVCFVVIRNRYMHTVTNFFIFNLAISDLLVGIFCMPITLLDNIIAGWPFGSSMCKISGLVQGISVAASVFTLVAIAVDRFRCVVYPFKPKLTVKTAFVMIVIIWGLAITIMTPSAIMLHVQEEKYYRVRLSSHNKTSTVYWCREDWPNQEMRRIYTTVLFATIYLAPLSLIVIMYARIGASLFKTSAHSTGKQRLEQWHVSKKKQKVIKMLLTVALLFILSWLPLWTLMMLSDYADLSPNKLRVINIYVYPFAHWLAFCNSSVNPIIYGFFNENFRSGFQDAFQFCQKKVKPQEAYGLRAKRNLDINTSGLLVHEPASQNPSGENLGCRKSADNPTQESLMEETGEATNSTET
# [14] = target: T2, Neuropeptide FF receptor 1; assay: Binding affinity to human NPFFR1 by radioligand binding assay
# [15] = target: T1, Neuropeptide FF receptor 2; assay: Agonist activity at NPFFR2 (unknown origin) expressed in HEK293 cells assessed as inhibition of forskolin-induced cAMP accumulation incubated for 30 mins relative to control; assay type: functional, cell-based; conditions: filed as agonist
# [16] = target: T1, Neuropeptide FF receptor 2; assay: Agonist activity at human NPFFR2 expressed in CHO cells assessed as inhibition of forskolin-induced cAMP accumulation incubated for 30 mins by LANCE cAMP assay; assay type: functional, cell-based
# [17] = target: T2, Neuropeptide FF receptor 1; assay: Antagonist activity at human NPFFR1 expressed in CHO-K1 cells assessed as reversal of agonist-induced inhibition of forskolin-stimulated cAMP accumulation incubated for 30 mins by LANCE ultra cAMP assay; assay type: functional, cell-based
# [18] = target: T1, Neuropeptide FF receptor 2; assay: Antagonist activity at human NPFFR2 expressed in CHO-K1 cells assessed as reversal of agonist-induced inhibition of forskolin-stimulated cAMP accumulation incubated for 30 mins by LANCE ultra cAMP assay; assay type: functional, cell-based
# [19] = target: T2, Neuropeptide FF receptor 1; assay: Agonist activity at NPFFR1 (unknown origin) expressed in mouse NIH3T3 cells by receptor selection and amplification technology assay; assay type: cell-based
# [20] = target: T1, Neuropeptide FF receptor 2; assay: Agonist activity at NPFFR2 (unknown origin) expressed in HEK293T cells harboring EP2 incubated for 15 mins by cAMP assay; assay type: functional, cell-based
# [21] = target: T1, Neuropeptide FF receptor 2; assay: Agonist activity at NPFFR2 (unknown origin) expressed in HEK293T cells harboring EP2 incubated for 15 mins by cAMP assay relative to control; assay type: functional, cell-based; conditions: filed as agonist
# [22] = target: T1, Neuropeptide FF receptor 2; assay: Agonist activity at NPFFR2 (unknown origin) expressed in mouse NIH3T3 cells by receptor selection and amplification technology assay relative to control; assay type: cell-based; conditions: filed as agonist
# [23] = target: T2, Neuropeptide FF receptor 1; assay: Agonist activity at NPFFR1 (unknown origin) expressed in HEK293T cells harboring EP2 incubated for 15 mins by cAMP assay; assay type: functional, cell-based
# [24] = target: T2, Neuropeptide FF receptor 1; assay: Antagonist activity at human NPFFR1 expressed in CHO cells assessed as reversal of NPVF-induced inhibition of forskolin-stimulated cAMP accumulation incubated for 10 mins by liquid scintillation counting method; assay type: functional, cell-based
# [25] = target: T1, Neuropeptide FF receptor 2; assay: Displacement of [125I]Tyr-NPFF from human NPFFR2 expressed in green monkey Cos-1 cells; assay type: cell-based
# [26] = target: T2, Neuropeptide FF receptor 1; assay: Displacement of [125I]YVP from human NPFFR1 expressed in CHO cells; assay type: cell-based
# [27] = target: T1, Neuropeptide FF receptor 2; assay: Agonist activity at human NPFFR2 expressed in CHO cells by [35S]-GTP S binding assay relative to control; assay type: cell-based; conditions: filed as agonist
# Nociceptin receptor = Nociceptin receptor (Homo sapiens, UniProt P41146); assay: Agonist activity at human nociceptin receptor expressed in HEK293 cells assessed as inhibition of forskolin-induced cAMP accumulation incubated for 15 mins followed by forskolin addition in presence of IBMX by Glo-sensor cAMP assay; assay type: functional, cell-based
# Nociceptin receptor, sequence (P41146 whole entry): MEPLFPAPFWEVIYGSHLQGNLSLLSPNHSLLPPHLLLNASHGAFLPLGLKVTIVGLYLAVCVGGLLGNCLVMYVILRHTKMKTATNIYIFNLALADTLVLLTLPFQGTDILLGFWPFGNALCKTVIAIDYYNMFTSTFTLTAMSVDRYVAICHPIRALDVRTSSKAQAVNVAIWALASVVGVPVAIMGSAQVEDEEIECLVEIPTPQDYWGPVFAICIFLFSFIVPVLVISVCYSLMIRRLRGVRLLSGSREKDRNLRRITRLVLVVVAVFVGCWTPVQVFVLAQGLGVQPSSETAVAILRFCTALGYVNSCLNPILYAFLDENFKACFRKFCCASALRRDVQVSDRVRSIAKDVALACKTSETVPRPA
# [28] = target: T3, Kappa-type opioid receptor; assay: Agonist activity at human kappa opioid receptor expressed in HEK293 cells assessed as inhibition of forskolin-induced cAMP accumulation incubated for 15 mins followed by forskolin addition in presence of IBMX by Glo-sensor cAMP assay relative to control; assay type: functional, cell-based; conditions: filed as agonist
# [29] = target: Mu-type opioid receptor (Homo sapiens) (UniProt P35372); assay: Agonist activity at human mu-opioid receptor expressed in HEK293 cells assessed as inhibition of forskolin-induced cAMP accumulation preincubated for 15 mins followed by forskolin addition in presence of IBMX by Glo-sensor cAMP assay relative to control; assay type: functional, cell-based; conditions: filed as agonist
# Mu-type opioid receptor (Homo sapiens), sequence (P35372 whole entry): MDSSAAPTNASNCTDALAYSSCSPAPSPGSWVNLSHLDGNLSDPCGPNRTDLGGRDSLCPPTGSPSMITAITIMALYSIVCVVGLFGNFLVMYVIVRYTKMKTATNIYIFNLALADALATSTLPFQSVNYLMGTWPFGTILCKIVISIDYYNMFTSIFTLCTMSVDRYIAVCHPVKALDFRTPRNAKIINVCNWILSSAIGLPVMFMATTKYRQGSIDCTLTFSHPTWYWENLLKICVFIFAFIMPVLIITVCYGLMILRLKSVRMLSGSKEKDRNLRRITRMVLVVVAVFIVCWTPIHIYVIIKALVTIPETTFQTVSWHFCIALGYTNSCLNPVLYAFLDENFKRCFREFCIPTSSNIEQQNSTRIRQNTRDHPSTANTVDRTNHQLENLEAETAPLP
# [30] = target: T3, Kappa-type opioid receptor; assay: Agonist activity at human kappa opioid receptor expressed in HEK293 cells assessed as inhibition of forskolin-induced cAMP accumulation incubated for 15 mins followed by forskolin addition in presence of IBMX by Glo-sensor cAMP assay; assay type: functional, cell-based
# [31] = target: T2, Neuropeptide FF receptor 1; assay: Agonist activity at human NPFFR1 expressed in CHO cells by [35S]-GTP S binding assay relative to control; assay type: cell-based; conditions: filed as agonist
# [32] = target: Delta-type opioid receptor (Homo sapiens) (UniProt P41143); assay: Agonist activity at human delta-opioid receptor expressed in HEK293 cells assessed as inhibition of forskolin-induced cAMP accumulation preincubated for 15 mins followed by forskolin addition in presence of IBMX by Glo-sensor cAMP assay relative to control; assay type: functional, cell-based; conditions: filed as agonist
# Delta-type opioid receptor (Homo sapiens), sequence (P41143 whole entry): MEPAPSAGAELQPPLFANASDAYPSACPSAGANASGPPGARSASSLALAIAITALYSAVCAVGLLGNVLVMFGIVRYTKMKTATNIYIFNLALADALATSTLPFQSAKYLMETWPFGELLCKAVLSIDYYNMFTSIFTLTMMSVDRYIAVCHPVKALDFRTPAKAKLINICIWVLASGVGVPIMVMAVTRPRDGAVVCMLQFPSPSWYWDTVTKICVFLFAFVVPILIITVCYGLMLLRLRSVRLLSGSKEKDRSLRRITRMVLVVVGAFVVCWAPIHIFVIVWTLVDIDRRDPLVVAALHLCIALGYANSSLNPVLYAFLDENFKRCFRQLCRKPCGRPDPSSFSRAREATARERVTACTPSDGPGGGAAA
# [33] = target: T4, Prolactin-releasing peptide receptor (Homo sapiens, UniProt P49683); assay: Displacement of [3H]-PrRP-20 from human PrRP receptor expressed in CHO cell membrane by TopCount scintillation counter method; assay type: cell membranes
# T4 sequence (P49683 whole entry): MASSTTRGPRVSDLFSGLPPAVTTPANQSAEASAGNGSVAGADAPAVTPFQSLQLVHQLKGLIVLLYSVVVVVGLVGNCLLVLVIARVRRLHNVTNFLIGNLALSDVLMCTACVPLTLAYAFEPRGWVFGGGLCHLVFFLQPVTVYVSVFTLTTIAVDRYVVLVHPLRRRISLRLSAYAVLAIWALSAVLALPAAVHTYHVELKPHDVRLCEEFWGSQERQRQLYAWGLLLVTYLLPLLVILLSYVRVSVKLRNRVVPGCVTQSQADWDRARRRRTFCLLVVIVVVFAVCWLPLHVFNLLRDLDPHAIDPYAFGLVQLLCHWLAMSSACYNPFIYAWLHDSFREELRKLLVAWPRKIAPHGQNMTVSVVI
# [34] = target: T1, Neuropeptide FF receptor 2; assay: Displacement of [3H]-FFRF-NH2 from human NPFFR2 expressed in CHO cell membrane by Topcount scintillation counting method; assay type: cell membranes
# [35] = target: T5, Pyroglutamylated RF-amide peptide receptor (Homo sapiens, UniProt Q96P65); assay: Displacement of [125I]-43RFa from human QRFP receptor expressed in CHO cell membrane by TopCount scintillation counter method; assay type: cell membranes
# T5 sequence (Q96P65 whole entry): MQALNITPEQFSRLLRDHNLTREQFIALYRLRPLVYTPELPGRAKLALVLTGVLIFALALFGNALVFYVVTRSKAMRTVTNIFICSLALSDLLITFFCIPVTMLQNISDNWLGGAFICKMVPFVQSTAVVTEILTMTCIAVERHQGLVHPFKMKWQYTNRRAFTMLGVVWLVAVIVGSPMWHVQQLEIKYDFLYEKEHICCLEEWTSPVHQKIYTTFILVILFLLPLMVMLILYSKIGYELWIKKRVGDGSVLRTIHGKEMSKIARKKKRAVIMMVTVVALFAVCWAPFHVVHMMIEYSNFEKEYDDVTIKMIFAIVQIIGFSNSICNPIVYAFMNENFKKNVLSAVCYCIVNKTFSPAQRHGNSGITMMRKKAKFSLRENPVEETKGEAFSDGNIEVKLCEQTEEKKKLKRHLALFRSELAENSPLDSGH
# [36] = target: T2, Neuropeptide FF receptor 1; assay: Displacement of [3H]-FFRF-NH2 from human NPFFR1 expressed in CHO cell membrane by Topcount scintillation counting method; assay type: cell membranes
# KiSS-1 receptor = KiSS-1 receptor (Homo sapiens, UniProt Q969F8); assay: Displacement of [125I]-Kp-10 from human KISS1R expressed in CHO cell membrane by TopCount scintillation counter method; assay type: cell membranes
# KiSS-1 receptor, sequence (Q969F8 whole entry): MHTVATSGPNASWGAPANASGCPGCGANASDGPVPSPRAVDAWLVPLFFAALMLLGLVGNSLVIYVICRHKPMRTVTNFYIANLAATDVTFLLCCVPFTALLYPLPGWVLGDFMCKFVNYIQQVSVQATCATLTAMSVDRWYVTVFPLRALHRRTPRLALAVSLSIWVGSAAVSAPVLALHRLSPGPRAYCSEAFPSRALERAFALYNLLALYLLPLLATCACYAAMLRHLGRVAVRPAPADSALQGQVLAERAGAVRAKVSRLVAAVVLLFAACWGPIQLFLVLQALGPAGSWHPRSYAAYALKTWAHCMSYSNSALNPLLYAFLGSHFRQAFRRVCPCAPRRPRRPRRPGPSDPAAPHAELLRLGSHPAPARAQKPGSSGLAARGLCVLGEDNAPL
smiles,measurement,setting,value
N=C(N)NCCC[C@H](NC(=O)[C@H](CCC(N)=O)NC(=O)[C@@H]1CCCN1C(=O)[C@H](CCC(N)=O)NC(=O)[C@H](Cc1ccccc1)NC(=O)[C@H](Cc1ccccc1)NC(=O)[C@@H]1CCCN1C(=O)[C@@H](N)Cc1ccc(O)cc1)C(=O)N[C@@H](Cc1ccccc1)C(N)=O (H-YPFFQPQRF-NH2),EC50,[1],0.0253 µM
same,EC50,[2],0.599 µM
same,EC50,[3],0.00444 µM
N=C(N)N/N=C/c1ccc(Br)c(Br)c1,Efficacy,[4],11%
same,Ki,[5],0.1 µM
same,EC50,[6],0.794 µM
same,Efficacy,[7],23%
same,Ki,[8],0.126 µM
O=C(N[C@@H](CCCN1CCCCC1)C(=O)NCCc1ccccc1)c1ccccc1-c1ccccc1,Ki,[9],0.172 µM
same,Ki,[10],0.56 µM
Cc1cc(NC(=N)N)nc2ccccc12,Ki,[11],0.007 µM
same,Ki,[12],0.091 µM
same,Ki,[13],0.185 µM
same,Ki,[14],0.013 µM
C[C@@H](NC(=O)[C@@H](N)Cc1ccc(O)cc1)C(=O)NCC(=O)N[C@@H](Cc1ccccc1)C(=O)N[C@@H](CCC(N)=O)C(=O)N1CCC[C@H]1C(=O)N[C@@H](CCC(N)=O)C(=O)N[C@@H](CCCNC(=N)N)C(=O)N[C@@H](Cc1ccccc1)C(N)=O (H-Y[dA]GFQPQRF-NH2),Emax,[15],117%
same,EC50,[16],0.178 µM
N=C(N)NCCC[C@@H](NC(=O)C(c1ccccc1)c1ccccc1)C(=O)N[C@@H](C(N)=O)c1ccccc1,IC50,[17],0.021 µM
same,IC50,[18],0.387 µM
N=C(N)N/N=C/c1ccc(-c2ccccc2C(F)(F)F)o1,Efficacy,[4]; filed as agonist,57.8%
same,EC50,[19],0.251 µM
same,EC50,[20],3.16 µM
same,Efficacy,[21],114%
same,Efficacy,[22],72.1%
same,EC50,[23],1.26 µM
same,Efficacy,[7]; filed as agonist,93%
NC(=O)[C@H](Cc1ccccc1)NC(=O)[C@H](CCCN=C(N)N)NC(=O)C12CC3CC(CC(C3)C1)C2,EC50,[24],4.7 µM
same,Ki,[25],0.075 µM
same,Ki,[26],0.058 µM
Cc1cc(O)cc(C)c1C[C@H](N)C(=O)N[C@H](CCCNC(=N)N)C(=O)N[C@H]1Cc2ccccc2CN(CCC(=O)N[C@@H](CCCNC(=N)N)C(=O)N[C@@H](Cc2ccccc2)C(N)=O)C1=O (H-[Dmt][dR][X1]RF-NH2),Emax,[27],111%
same,EC50,Nociceptin receptor,> 10 µM
same,Emax,[28],95%
same,Emax,[29],92%
same,EC50,[30],0.108 µM
same,Emax,[31],88%
same,Emax,[32],89%
NC1=NC=C(c2ccc(Cl)c(Cl)c2)CN1,Ki,[33],> 5 µM
same,Ki,[34],0.037 µM
same,Ki,[35],> 5 µM
same,Ki,[36],0.001 µM
same,Ki,KiSS-1 receptor,> 5 µM
